From paper PMC8201735 (BMC Pharmacology & Toxicology, 2021)
Where two headings read alike, the source gives them in different places.

Columns and labels:
subjects with T2DM [1] = experiment: Adverse event monitoring, RE co-administered with metformin for 13 days; format: in vivo, human; conditions: for Any AE / Tolerability of co-administration with metformin: 13 days; for Tolerability of co-administration with metformin: RE 500 or 750 mg BID + metformin >=2000 mg/day
Source text: The study was comprised of three phases; run-in, randomization, and treatment. […] In treatment phase the patients were considered in two cohorts. […] The adverse events monitoring included recording of any adverse event (AE) and serious adverse event (SAE) reported or observed during the entire study and follow-up period. All the subjects were counseled to inform study staff of any AEs that occurred during the study. Any abnormal laboratory findings (e.g., clinical chemistry, hematology, and urinalysis) or other abnormal assessments (e.g., ECGs, vital signs, physical examination) that were judged by the investigator as clinically significant were recorded as AEs or SAE.

subjects with T2DM [2] = experiment: Surveillance for lactic acidosis: fasting plasma lactic acid concentration; format: in vivo, human
Description: The samples for acidosis analysis were collected at screening (following an overnight fast and prior to morning dose), once during the run-in phase, at baseline (Day- 1), mornings (prior to first dose and breakfast) of Days 1, 2, 3, and 4 (inpatient) and Days 6, 8, and 10 (outpatient) and Days 13 and 14 (inpatient). Subjects were not allowed to do rigorous exercise or physical labor during the treatment phase of the study and instructed to limit exercise 12 h before sampling.
(§1) Descriptive statistics were used to summarize baseline demographics, safety data, and pharmacokinetic parameters. Geometric mean and % CVb (between-subject coefficient of variation) were calculated for all pharmacokinetic parameters except tmax. Comparisons of placebo with each active dose of RE were assessed in terms of change from baseline in fasting plasma lactate acid using repeated measures analysis of covariance model. The model included terms for baseline measurement, visit, treatment and visit-by-treatment interaction. The same model was applied to change from baseline in weighted means of day-time, night-time and 0–24 h of blood pressures. Within group treatment comparison was performed using mixed model on log transformed Cmax and AUC (0-last).

subjects with T2DM [3] = experiment: Ambulatory blood pressure monitoring; format: in vivo, human; conditions: for Decrease in diastolic blood pressure at nighttime, Day 13, compared to placebo (metformin alone) / Decrease in systolic blood pressure at nighttime, Day 13, compared to placebo (metformin alone): stated as magnitude of decrease
Description: The ambulatory blood pressure was monitored for […] during inpatient days (beginning Day 1 at 08.00, Day 2 at 08.00 and Day 13 at 08.00). The unit was programmed to take blood pressure readings every 10 min from 08.00 to 10.00, every 20 min from 10.00 to 22.00, and every 30 min from 22.00 to 08.00 the following morning.
as §1

[4] = Plasma pharmacokinetics of metformin with and without RE; format: in vivo, human; conditions: RE 500 mg or 750 mg BID with metformin
Description: as §1, with “PK analysis was conducted by […] (Chapel Hill, NC, USA), under the direction of Clinical Pharmacokinetics/Modelling and Simulation, GSK using the non-compartmental analysis Model 200 (for extra vascular administration) of WinNonlin Professional Edition version 4.1 (Pharsight Corporation, Mountain View, CA). […] Descriptive” for “Descriptive”, “0-24” for “0–24”

[5] = Plasma pharmacokinetics of remogliflozin etabonate and its metabolites during metformin treatment; format: in vivo, human; conditions: for AUC(0-t) / Cmax / Tmax: human, plasma, oral; for AUC(0-t): read-out: AUC (0-last), geometric mean (%CVb); for Cmax: read-out: Cmax, geometric mean (%CVb); for Tmax: read-out: tmax, median (range)
Description: as §1, with “PK analysis was conducted by […] (Chapel Hill, NC, USA), under the direction of Clinical Pharmacokinetics/Modelling and Simulation, GSK using the non-compartmental analysis Model 200 (for extra vascular administration) of WinNonlin Professional Edition version 4.1 (Pharsight Corporation, Mountain View, CA). […] Descriptive” for “Descriptive”, “0-24” for “0–24”

Body weight = format: in vivo, human; conditions: for Change from baseline in body weight, Mean (SD): Day 2
Description: Body weight measurement was performed at screening and during inpatient Days- 1, 2, 4, 8, 13, and 14.

subjects with T2DM [6] = conditions: RE 500 mg BID and metformin 500 mg BID for 3 days; cited from earlier work
[7] = set-up: method as in PMID 25934577; conditions: repeat dosing PK; cited from earlier work
T2DM patients = tested on: T2DM patients; set-up: method as in PMID 32162274; conditions: T2DM patients on daily metformin therapy (> 1500 mg) over 24 weeks; cited from earlier work
[8] = RE 500 mg BID + metformin, N = 16
[9] = RE 750 mg BID + metformin, N = 17
[10] = Study Day 2, RE 750 mg BID + metformin
[11] = Study Day 6, RE 750 mg BID + metformin
[12] = 24 h, RE 500 mg BID + metformin, N = 14
[13] = 24 h, RE 750 mg BID + metformin, N = 14
[14] = Daytime (10 am to 8 pm), RE 500 mg BID + metformin
[15] = Daytime (10 am to 8 pm), RE 750 mg BID + metformin
[16] = Nighttime (midnight to 6 am), RE 500 mg BID + metformin
[17] = Nighttime (midnight to 6 am), RE 750 mg BID + metformin
[18] = 500 mg, Day 1, after RE 500 mg BID + metformin, N = 16
[19] = 500 mg, Day 13, after RE 500 mg BID + metformin, N = 15
[20] = 750 mg, Day 1, after RE 750 mg BID + metformin, N = 17
[21] = 750 mg, Day 13, after RE 750 mg BID + metformin, N = 16

CCOC(=O)OC[C@H]1O[C@@H](Oc2nn(C(C)C)c(C)c2Cc2ccc(OC(C)C)cc2)[C@H](O)[C@@H](O)[C@@H]1O [RE, remogliflozin etabonate]
Any AE (subjects with T2DM [1]; RE 500 mg BID + metformin >=2000 mg/day, N = 16): 6 (38%) N(%) | Dizziness (subjects with T2DM [1]; [8]): 1 (6%) N(%) | Nausea (subjects with T2DM [1]; [8]): 1 (6%) N(%) | Thirst (subjects with T2DM [1]; [8]): 0 N(%) | Post-therapy AEs (subjects with T2DM [1]; RE 750 mg + metformin group): no post-therapy AEs | Subjects with hypoglycemic laboratory events (subjects with T2DM [1]; RE 750 mg + metformin group, moderate, resolved with sweets): one | Any AE (subjects with T2DM [1]; RE 750 mg BID + metformin >=2000 mg/day, N = 17): 4 (24%) N(%) | Diarrhoea (subjects with T2DM [1]; [9]): 1 (6%) N(%) | Dizziness (subjects with T2DM [1]; [9]): 1 (6%) N(%) | Dyslipidemia (subjects with T2DM [1]; [9]): 0 N(%) | Nausea (subjects with T2DM [1]; [9]): 1 (6%) N(%) | Supraventricular tachycardia (subjects with T2DM [1]; [9]): 0 N(%) | Urinary tract infection (subjects with T2DM [1]; [9]): 0 N(%) | Vomiting (subjects with T2DM [1]; [9]): 1 (6%) N(%) | Tolerability of co-administration with metformin (subjects with T2DM [1]): generally well tolerated | Tolerability of co-administration with metformin (subjects with T2DM [1]; listed as remogliflozin etabonate): well tolerated | Fasting plasma lactic acid, maximum on-therapy absolute values, Mean (SD) (subjects with T2DM [2]; RE 500 mg BID + metformin): 1.220 (0.2684) mmol/L | Fasting plasma lactic acid, maximum on-therapy change from baseline, Mean (SD) (subjects with T2DM [2]; RE 500 mg BID + metformin): 0.234 (0.3717) mmol/L | Fasting plasma lactic acid, maximum on-therapy absolute values, Mean (SD) (subjects with T2DM [2]; RE 750 mg BID + metformin): 1.508 (0.4389) mmol/L | Fasting plasma lactic acid, maximum on-therapy change from baseline, Mean (SD) (subjects with T2DM [2]; RE 750 mg BID + metformin): 0.249 (0.5934) mmol/L | Fasting plasma lactic acid change from baseline, Mean (SD) (subjects with T2DM [2]; Study Day 2, RE 500 mg BID + metformin): −0.07 (0.248) mmol/L | Fasting plasma lactic acid change from baseline, Difference vs. placebo (95% CI), ANCOVA (subjects with T2DM [2]; [10]): −0.246(− 0.445, − 0.047) mmol/L | Fasting plasma lactic acid change from baseline, Mean (SD) (subjects with T2DM [2]; [10]): −0.17 (0.419) mmol/L | Fasting plasma lactic acid change from baseline, Difference vs. placebo (95% CI), ANCOVA (subjects with T2DM [2]; Study Day 6, RE 500 mg BID + metformin): −0.380 (− 0.603, − 0.157) mmol/L | Fasting plasma lactic acid change from baseline, Mean (SD) (subjects with T2DM [2]; Study Day 6, RE 500 mg BID + metformin, n = 15): −0.26 (0.310) mmol/L | Fasting plasma lactic acid change from baseline, Difference vs. placebo (95% CI), ANCOVA (subjects with T2DM [2]; [11]): −0.254(− 0.472, − 0.036) mmol/L | Fasting plasma lactic acid change from baseline, Mean (SD) (subjects with T2DM [2]; [11]): −0.26 (0.538) mmol/L | Fasting plasma lactic acid change from baseline, Difference vs. placebo (95% CI), ANCOVA (subjects with T2DM [2]; Study Day 13, RE 500 mg BID + metformin): −0.191 (− 0.414, 0.031) mmol/L | Fasting plasma lactic acid change from baseline, Mean (SD) (subjects with T2DM [2]; Study Day 13, RE 500 mg BID + metformin, n = 15): −0.15 (0.485) mmol/L | Fasting plasma lactic acid change from baseline, Difference vs. placebo (95% CI), ANCOVA (subjects with T2DM [2]; Study Day 13, RE 750 mg BID + metformin): −0.255 (− 0.475, − 0.034) mmol/L | Fasting plasma lactic acid change from baseline, Mean (SD) (subjects with T2DM [2]; Study Day 13, RE 750 mg BID + metformin, n = 16): −0.33 (0.398) mmol/L | Subjects with lactic acid greater than the upper limits of normal (ULN) at any time (subjects with T2DM [2]; receiving RE, not sustained, minimally above ULN): one | Ambulatory diastolic BP, adjusted mean change from baseline to Day 13 vs. placebo (subjects with T2DM [3]; [12]): −2.0; p = 0.256 mmHg | Ambulatory systolic BP, adjusted mean change from baseline to Day 13 vs. placebo (subjects with T2DM [3]; [12]): −2.8; p = 0.303 mmHg | Ambulatory diastolic BP, adjusted mean change from baseline to Day 13 vs. placebo (subjects with T2DM [3]; [13]): −3.3; p = 0.062 mmHg | Ambulatory systolic BP, adjusted mean change from baseline to Day 13 vs. placebo (subjects with T2DM [3]; [13]): −4.0; p = 0.131 mmHg | Ambulatory diastolic BP, adjusted mean change from baseline to Day 13 vs. placebo (subjects with T2DM [3]; [14]): −1.8; p = 0.461 mmHg | Ambulatory systolic BP, adjusted mean change from baseline to Day 13 vs. placebo (subjects with T2DM [3]; [14]): −3.4; p = 0.291 mmHg | Ambulatory diastolic BP, adjusted mean change from baseline to Day 13 vs. placebo (subjects with T2DM [3]; [15]): −1.3; p = 0.586 mmHg | Ambulatory systolic BP, adjusted mean change from baseline to Day 13 vs. placebo (subjects with T2DM [3]; [15]): −2.4; p = 0.441 mmHg | Ambulatory diastolic BP, adjusted mean change from baseline to Day 13 vs. placebo (subjects with T2DM [3]; [16]): −6.5; p = 0.006 mmHg | Ambulatory systolic BP, adjusted mean change from baseline to Day 13 vs. placebo (subjects with T2DM [3]; [16]): −8.4; p = 0.020 mmHg | Ambulatory diastolic BP, adjusted mean change from baseline to Day 13 vs. placebo (subjects with T2DM [3]; [17]): −4.8; p = 0.043 mmHg | Ambulatory systolic BP, adjusted mean change from baseline to Day 13 vs. placebo (subjects with T2DM [3]; [17]): −7.1; p = 0.047 mmHg | Decrease in diastolic blood pressure at nighttime, Day 13, compared to placebo (metformin alone) (subjects with T2DM [3]; RE 500 mg BID + metformin): 6.5 mmHg | Decrease in systolic blood pressure at nighttime, Day 13, compared to placebo (metformin alone) (subjects with T2DM [3]; RE 500 mg BID + metformin): 8.4 mmHg | Decrease in diastolic blood pressure at nighttime, Day 13, compared to placebo (metformin alone) (subjects with T2DM [3]; RE 750 mg BID + metformin): 4.8 mmHg | Decrease in systolic blood pressure at nighttime, Day 13, compared to placebo (metformin alone) (subjects with T2DM [3]; RE 750 mg BID + metformin): 7.1 mmHg | Effect of RE on the pharmacokinetics of metformin [4]: no effect | AUC(0-last) accumulation ratio Day 13 versus Day 1, point estimate (90% CI) ([5]; RE 500 mg + Metformin): 0.99 (0.857–1.15) | AUC(0-last) accumulation ratio Day 13 versus Day 1, point estimate (90% CI) ([5]; RE 750 mg + Metformin): 1.02 (0.861–1.21) | AUC(0-t) ([5]; 500 mg, Day 1, RE 500 mg BID + metformin, N = 16): 70.9 ng·h/mL | Cmax [5, 18]: 64.8 ng/mL | Tmax [5, 18]: 37.8 min | AUC(0-t) ([5]; 500 mg, Day 13, RE 500 mg BID + metformin, N = 15): 73.5 ng·h/mL | Cmax [5, 19]: 53.3 ng/mL | Tmax [5, 19]: 30 min | AUC(0-t) ([5]; 750 mg, Day 1, RE 750 mg BID + metformin, N = 17): 121 ng·h/mL | Cmax [5, 20]: 137 ng/mL | Tmax [5, 20]: 30 min | AUC(0-t) ([5]; 750 mg, Day 13, RE 750 mg BID + metformin, N = 16): 121 ng·h/mL | Cmax [5, 21]: 101 ng/mL | Tmax [5, 21]: 28.8 min | Change from baseline in body weight, Mean (SD) (Body weight; RE 500 mg + Metformin): −1.03 (0.994) kg | Change from baseline in body weight, Mean (SD) (Body weight; RE 750 mg + Metformin): −1.04 (1.210) kg | Additional body weight lost in the RE groups compared to metformin alone (Body weight; by Day 14, RE 500 or 750 mg BID + metformin vs placebo + metformin): ~1 kg | Effect of RE on the steady-state plasma profiles of metformin (subjects with T2DM [6]): no effect | Tolerability of concomitant administration (subjects with T2DM [6]): well tolerated | Increase in AUC on repeat dosing [7]: 10% | Increase in t1/2 on repeat dosing [7]: 10% | Glycemic efficacy (T2DM patients): comparable to dapagliflozin
